System: U2932 KD cells
Description: pLKO.puro shRNA vectors were used for ZNF586, ZNF587 and ZNF417 knock downs. […] The short hairpin RNAs (shRNAs) targeting the sequence ZNF586 (TRCN0000015373 and TRCN0000015376) were obtained from Sigma-Aldrich. Lentiviral vectors production protocols are detailed at http://tronolab.epfl.ch. The cell proliferation after LV transduction was determined using the 3-[4,5-dimethylthiazol-2-yl]-2,5-diphenyltetrazolium bromide (MTT) assay. The cells were transduced at a multiplicity of infection (MOI) of 20 in every experiment.

SMILES | cytotoxic interaction of drug with ZNF587/417 depletion
Nc1ncn([C@H]2C[C@H](O)[C@@H](CO)O2)c(=O)n1 [decitabine] | cytotoxic synergism
C=CC(=O)N1CCC[C@@H](n2nc(-c3ccc(Oc4ccccc4)cc3)c3c(N)ncnc32)C1 [ibrutinib] | cytotoxic synergism

From US20240271133A1, “KRAB-Containing Zinc Finger Protein And Cancer” (ECOLE POLYTECHNIQUE FEDERALE DE LAUSANNE (EPFL), priority 2021, published 2024)
